In patent US20060276465A1, “1,2-di(cyclic) substituted benzene compounds” (Eisai R&D Management Co., Ltd., priority 2003, published 2006):

Tests used:
[1] = tested on: human peripheral blood neutrophils; assay: Human peripheral blood neutrophil adhesion system (adhesion to immobilized HUVEC, PMA-stimulated); format: cell-based; conditions: 0.75 h, concentration inhibiting by 50% the PMA-stimulated increase in the number of adhered BCECF-AM labeled neutrophils on HUVEC immobilized plate, 45 minutes, 37° C.
Method: Evaluation of Compounds in Human Peripheral Blood Neutrophil Adhesion System
<Preparation of Human Peripheral Blood Neutrophils>
To a plastic centrifugation tube containing 100 units of heparin sodium (Shimizu Pharmaceutical) was added 25 ml of fresh blood sampled from a healthy human. After adding and mixing therewith 8 ml of physiological saline (Otsuka Pharmaceutical) containing 6% Dextran (Nacalai), the mixture was allowed to stand at room temperature for 45 minutes for sedimentation of the erythrocytes. The resultant supernatant was transferred to another plastic centrifugation tube and combined with an equivalent volume of phosphate-buffered saline (hereinafter abbreviated as PBS; Sigma), and then centrifuged at 1600 rpm for 7 minutes at room temperature. The obtained hematocyte fraction was suspended in 4 ml of PBS, and the suspension was superposed on 4 ml of Ficoll-Paque™ PLUS (Amersham Biosciences). The resultant bilayer liquid was centrifuged at 2000 rpm for 30 minutes at room temperature, after which the supernatant was removed and the precipitate was suspended in 10 ml of PBS and centrifuged at 1200 rpm for 7 minutes, and the supernatant was removed. The resulting precipitate was suspended in 0.5 ml of PBS again, and then 10 ml of distilled water (Otsuka Pharmaceutical) was added, 0.5 ml of an aqueous solution containing 3 M NaCl was immediately added to restore isotonicity, the mixture was centrifuged at 1200 rpm for 7 minutes, and the obtained precipitate was suspended in PBS containing 1 mg/ml bovine serum albumin (hereinafter abbreviated as BSA; Sigma) again and stored in ice until being used for the experiment.
<Fluorescent Labeling of Human Peripheral Blood Neutrophils>
The obtained neutrophils were suspended in PBS containing 1 mg/ml BSA at 2×10^7 cells/ml. BCECF-AM (Dojin) was added to a final concentration of 5 μM, and the mixture was incubated at 37° C. for 45 minutes. It was then rinsed twice with PBS containing 1 mg/ml BSA by centrifugation, suspended again in PBS containing 1 mg/ml BSA at 5×10^7 cells/ml, and stored in ice until use.
<Preparation of HUVEC Immobilized Plate>
Human umbilical vein endothelial cells (hereinafter abbreviated as HUVEC) were suspended in MCDB131 medium (Chlorella Industries) containing 10% fetal calf serum and 30 μg/ml endothelial cell growth supplement (Becton Dickinson Bioscience). The suspension was added at 7.5×10^3 cells/well to a 96-well plate (Iwaki) immobilized with type I collagen, and cultured for 3 days in a CO2 incubator (Hirasawa). Upon confirming confluency of the cells, the supernatant was discarded, the plate was rinsed twice with PBS, and then PBS containing 0.1% glutaraldehyde (Kanto Kagaku) was added at 100 μl/well and the HUVECs were immobilized for 5 minutes. The supernatant was discarded and the plate was washed twice with PBS, and then PBS was added at 100 μl/well and the mixture was stored at 4° C. until use.
To 6.5 ml of RPMI-1640 medium (Sigma) containing 1 mg/ml of BSA were added 0.5 ml of a suspension of BCECF-AM labeled neutrophils at 5×10^7/ml stored in ice, which was mixed, and the mixture was added at 80 μl/well to a HUVEC immobilized plate. To this plate were immediately added 10 μl/well of a solution of the compound diluted at different concentrations with RPMI-1640 containing 1 mg/ml BSA, and 10 μl/well of 100 nM phorbol myristate acetate (hereinafter abbreviated as PMA; Sigma) in RPMI-1640 containing 1 mg/ml BSA, and the mixture was incubated in a CO2 incubator at 37° C. for 45 minutes. The supernatant was removed from the plate, which was then washed several times with RPMI-1640 at 100 μl/well, and then PBS containing 0.1% NP-40 (Calbiochem) was added thereto at 100 μl/well and the fluorescent intensity was measured with and ARVO™SX 1420 multi label counter (Wallac) to determine the number of adhered cells. […]

Balb/c mice = assay: DSS-induced colitis model; format: in vivo; conditions: male Balb/c mice; 1-3% DSS for 5-7 days; 30 mg/kg orally once a day for 5-7 successive days
Description: Evaluation of Compounds in DSS-Induced Colitis Model
A 1-3% solution of dextran sulfate sodium (hereinafter abbreviated as DSS; ICN) in purified water (Otsuka Pharmaceutical) was fed freely to 6- to 7-week-old male Balb/c mice (Charles River Japan) for 5-7 days to induce colitis. Disease Activity Index (hereinafter abbreviated as DAI) scored based on fecal hardness, blood content in feces and body weight change, the number of neutrophils infiltrating the colon and the length of the colon were used as indexes to evaluate compounds. Each compound was suspended or dissolved in an aqueous solution containing 0.5% methyl cellulose (Wako), and orally administered at 30 mg/kg once a day, for 5-7 successive days.

Jurkat cells = assay: Jurkat cell adhesion system (adhesion to immobilized human fibronectin, PMA-stimulated); format: cell-based; conditions: concentration inhibiting by 50% the PMA-stimulated increase in the number of adhered Jurkat cells on human fibronectin; 45-60 minutes, 37° C.
Method: Evaluation of Compounds in Jurkat Cell Adhesion System
<Immobilization of Human Fibronectin in 96-Well Plate>
Human fibronectin (Becton Dickinson Biosciences) was diluted with phosphate-buffered saline (hereinafter abbreviated as PBS; Sigma) to 0.1-0.01 μg/ml, and the diluted solution was added to a 96-well plate (Becton Dickinson) at 50 μl/well, and allowed to stand overnight at 4° C. On the following day, the supernatant was removed from the plate, and then PBS containing 1% bovine serum albumin (hereinafter abbreviated as BSA; Sigma) was added thereto at 100 μl/well and incubation was performed at 37° C. for 2 hours in a CO2 incubator (Hirasawa).
The supernatant was removed from each plate and Jurkat cells suspended in RPMI-1640 (Sigma) containing 1 mg/ml BSA were added at 80 μl/well for 2.5×10^5 cells/well. The compound diluted to different concentrations with RPMI-1640 containing 1 mg/ml BSA was immediately added at 10 μl/well, and then 100 nM phorbol myristate acetate (hereinafter abbreviated as PMA; Sigma) in RPMI-1640 containing 1 mg/ml BSA was added at 10 μl/well and the plate was incubated in a CO2 incubator at 37° C. for 45-60 minutes. The supernatant was removed from the plate and each well was washed several times with 100 μl/well of RPMI-1640, after which 50 mM citrate buffer (pH 5.0) containing 3.75 mM p-nitrophenol-N-acetyl-β-D-glucosaminide (Sigma) and 0.25% Triton X-100 (Sigma) were added at 60 μl/well, and the mixture was placed in a CO2 incubator and incubated at 37° C. for 45 minutes. After incubation, 50 mM glycine buffer (pH 10.4) containing 5 mM EDTA was added at 90 μl/well, and the absorbance at 405 nm was measured with an EL340 Automated Microplate Reader (BIO-TEK) to determine the adhered cell count. The concentration of each compound which inhibited the increase in the number of adhered cells by the PMA-stimulation by 50% was recorded as the IC50 (μM).

Compound: COCCN1CCN(c2ccccc2C2CCC(C(C)(C)C)CC2)CC1.Cl (stereo not drawn) [Example 19, 1-[2-(4-t-Butylcyclohexyl)phenyl]-4-(2-methoxyethyl)piperazine hydrochloride]
- IC50 [1]: 11.6 µM
- improvement in comparison with the DSS control group (DAI, number of neutrophils infiltrating the colon, length of the colon) (Balb/c mice): particularly good improvement
- IC50 (Jurkat cells): 6.2 µM
